O=C([O-])c1ccccc1.[K+]
solubility (mole fraction)
Conditions | in DMAc | in DMF | in ethanol | in formamide | in isobutanol | in isopropanol | in methanol | in n-butanol | in n-pentanol | in n-propanol
282.95 K | 0.000243 | 0.000325 | 0.00133 | 0.0439 | 0.000248 | 0.000225 | 0.0144 | 0.000586 | 0.000517 | 0.000735
287.95 K | 0.000263 | 0.000372 | 0.00143 | 0.0444 | 0.000284 | 0.000256 | 0.0148 | 0.000617 | 0.000604 | 0.000781
293.25 K | 0.000287 | 0.000426 | 0.00157 | 0.045 | 0.000325 | 0.000286 | 0.0153 | 0.000646 | 0.000693 | 0.000841
298.25 K | 0.000309 | 0.000502 | 0.00168 | 0.0457 | 0.000355 | 0.000314 | 0.0158 | 0.000673 | 0.000776 | 0.000892
303.35 K | 0.000333 | 0.000587 | 0.00181 | 0.0465 | 0.000402 | 0.000354 | 0.0162 | 0.000731 | 0.000865 | 0.000961
308.25 K | 0.000367 | 0.000665 | 0.00192 | 0.0473 | 0.000457 | 0.000409 | 0.0167 | 0.000795 | 0.000929 | 0.00104
312.85 K | 0.000392 | 0.000722 | 0.0021 | 0.0481 | 0.000517 | 0.000459 | 0.0172 | 0.000898 | 0.000986 | 0.00115
317.95 K | 0.000425 | 0.000778 | 0.00244 | 0.0489 | 0.000572 | 0.000511 | 0.0181 | 0.000983 | 0.00105 | 0.00126

Source: BigSolDB 2.1
